Like-named read-outs stand apart in the source and are kept apart here.
Tests used:
E. coli Tol C = test: Test A antibacterial assay, standard microtitration (MIC); format: cell-based; details: for Minimum Inhibitory Concentrations E. coli Tol C: Gram negative
Description: (§1) Test A-Antibacterial Assay
(§2) The compounds of the present invention were tested against an assortment of Gram-negative and Gram-positive organisms using standard microtitration techniques (Cohen, et al., Antimicrob. Agents Chemother., 1985;28:766; Heifetz, et al., Antimicrob. Agents Chemother:, 1974;6:124). […]

E. faecalis RB1 = test: as above; format: cell-based; details: Gram positive, E. faecalis RB1
Description: as §1, §2

S. pyogenes C203 = test: as above; format: cell-based; details: Gram positive, S. pyogenes C203
Description: as §1, §2

E. coli MC 4100 = test: as above; format: cell-based; details: Gram negative, E. coli MC 4100
Description: as §1, §2

S. aureus 29213 = test: as above; format: cell-based; details: Gram positive, S. aureus 29213
Description: as §1, §2

E. coli B90 = test: as above; format: cell-based; details: Gram negative, E. coli B90
Description: as §1, §2

E. coli gyrase = E. coli gyrase (Escherichia coli, UniProt P0AES4+P0AES6); test: biochemical
Sequence of E. coli gyrase (P0AES4 whole entry, the tested form may be a part, one chain of several): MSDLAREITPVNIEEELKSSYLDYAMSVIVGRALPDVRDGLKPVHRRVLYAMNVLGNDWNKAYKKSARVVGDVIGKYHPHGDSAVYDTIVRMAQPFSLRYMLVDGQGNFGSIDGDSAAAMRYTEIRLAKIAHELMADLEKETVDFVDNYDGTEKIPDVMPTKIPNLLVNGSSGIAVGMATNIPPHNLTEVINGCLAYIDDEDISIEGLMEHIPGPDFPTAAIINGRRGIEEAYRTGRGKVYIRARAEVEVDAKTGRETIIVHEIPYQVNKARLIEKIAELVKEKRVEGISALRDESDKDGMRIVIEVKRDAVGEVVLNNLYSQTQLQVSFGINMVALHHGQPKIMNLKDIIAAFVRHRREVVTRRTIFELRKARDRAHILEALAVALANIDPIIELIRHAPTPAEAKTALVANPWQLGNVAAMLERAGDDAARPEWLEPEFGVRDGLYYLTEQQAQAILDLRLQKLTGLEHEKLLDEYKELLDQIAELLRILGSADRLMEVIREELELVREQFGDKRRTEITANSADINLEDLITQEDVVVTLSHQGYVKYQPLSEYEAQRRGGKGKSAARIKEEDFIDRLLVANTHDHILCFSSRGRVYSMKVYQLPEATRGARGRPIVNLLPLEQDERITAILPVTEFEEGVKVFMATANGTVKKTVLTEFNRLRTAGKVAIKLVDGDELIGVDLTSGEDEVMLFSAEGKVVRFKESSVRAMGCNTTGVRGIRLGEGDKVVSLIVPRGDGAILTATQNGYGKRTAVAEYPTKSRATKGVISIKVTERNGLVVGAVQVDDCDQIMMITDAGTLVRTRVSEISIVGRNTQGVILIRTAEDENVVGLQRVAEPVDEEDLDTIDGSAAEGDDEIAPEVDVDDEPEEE

[1] = Test E pharmacokinetic behavior in dogs; format: in vivo; details: male, beagle, plasma; Dog; 5 mg/kg IV infusion over 15 minutes
Description: (§3) Test E-Pharmacokinetic Behavior or Quinazolinediones vs. 3-Aminoquinazolinediones
(§4) The compounds of the present invention were tested for pharmacokinetic behavior against the structurally related 3-aminoquinazolinediones in rats, dogs and monkeys. The representative result of the evaluation for compound 4b is shown in Table 6 compared to a structurally similar 3-aminoquinazolinedione.
Male Beagle Dogs were dosed with compound dissolved in D5W at 5 mg/kg IV Infusion over 15 minutes. Blood samples will be collected at 0, 0.167, 0.25, 0.33, 0.5, 1, 2, 4, 6, 8, 12 and 24 hours post dose.
(§5) Plasma from all samples were harvested following centrifugaltion and stored frozen until plasma concentrations were determined using liquid chromatography/mass spectroscopy methods. The concentration/time profile for each compound in each animal species was analyzed using non-compartmental pharmacokinetic analysis approach. In the table, clearance is defined as the volume of fluid cleared of drug from the body per unit of time. Clearance is a quantitative assessment of drug elimination. Drug elimination is the irreversible removal of drug from the body by all routes of elimination.

[2] = Test E pharmacokinetic behavior in monkeys; format: in vivo, Male Cynomologous Monkeys; details: male, plasma; Monkey; 5 mg/kg IV infusion over 15 minutes
Description: as §3, §4
Male Cynomologous Monkeys were dosed with compound dissolved in D5W at 5 mg/kg IV Infusion over 15 minutes. Blood samples were collected at 0, 0.167, 0.25, 0.33, 0.5, 1, 2, 4, 6, 8, 12 and 24 hours post dose.
as §5

[3] = Test E pharmacokinetic behavior in rats; format: in vivo; details: male, Wistar, plasma; Rat; 1 mg/kg IV infusion in D5W over 5 minutes
Description: as §3, §4
In this study, compounds were administered to male Wistar rats and were dosed at 1 mg/kgIV infusion in D5W over 5 minutes. Blood samples were drawn at 0, 0.083, 0.167, 0.25, 0.5, 1, 2, 4, 6, 8, 12, and 24 hours post dose.
as §5

[4] = supercoiling of relaxed pBR322, 30 minutes at 37° C.

Cc1c(-c2csc(CN)c2)c(F)cc2c(=O)[nH]c(=O)n(C3CC3)c12.Cl [Example 22j, 7-(5-Aminomethylthiophen-3-yl)-1-cyclopropyl-6-fluoro-8-methyl-1H-quinazoline-2,4-dione Hydrochloride]
MIC (E. coli Tol C; Escherichia coli, read-out: Minimum Inhibitory Concentrations E. coli Tol C): 1 µg/mL | MIC (E. faecalis RB1; Enterococcus faecalis, read-out: Minimum Inhibitory Concentrations E. faecalis RB1): 2 µg/mL | MIC (S. pyogenes C203; Streptococcus pyogenes, read-out: Minimum Inhibitory Concentrations S. pyogenes C203): 0.25 µg/mL | MIC (E. coli MC 4100; Escherichia coli, MC4100, read-out: Minimum Inhibitory Concentrations E. coli MC 4100): 8 µg/mL | MIC (S. aureus 29213; Staphylococcus aureus, read-out: Minimum Inhibitory Concentrations S. aureus 29213): 1 µg/mL | MIC (E. coli B90; Escherichia coli, read-out: Minimum Inhibitory Concentrations E. coli B90): 1 µg/mL | IC50 (E. coli gyrase; [4]): 1.4 µM

CC1COc2c(N3CC[C@@H]([C@H](C)N)C3)c(F)c(N)c3c(=O)[nH]c(=O)n1c23.Cl (stereo partly drawn) [Example 16d, 7-Amino-9-[9-(R)-3-((S)-1-aminoethyl)pyrrolidin-1-yl)-8-fluoro-3-methyl-2,3-dihydro-1-oxa-3a,5-diazaphenalene-4,6-dione Hydrochloride]
Minimum Inhibitory Concentrations E. coli Tol C (E. coli Tol C): 4.0 µg/mL | Minimum Inhibitory Concentrations E. faecalis RB1 (E. faecalis RB1): 1.0 µg/mL | Minimum Inhibitory Concentrations S. pyogenes C203 (S. pyogenes C203): 0.5 µg/mL | Minimum Inhibitory Concentrations E. coli MC 4100 (E. coli MC 4100): >64.0 µg/mL | Minimum Inhibitory Concentrations S. aureus 29213 (S. aureus 29213): 1.0 µg/mL | Minimum Inhibitory Concentrations E. coli B90 (E. coli B90): 16.0 µg/mL | IC50 (E. coli gyrase): 25 µM

7-[(R)-3-(1-Aminocyclopropyl)pyrrolidin-1-yl]-1-cyclopropyl-6-fluoro-8-methyl-1 h-quinazolinedione Hydrochloride [Example 26b]
Minimum Inhibitory Concentrations E. coli Tol C (E. coli Tol C): 0.13 µg/mL | Minimum Inhibitory Concentrations E. faecalis RB1 (E. faecalis RB1): 0.13 µg/mL | Minimum Inhibitory Concentrations S. pyogenes C203 (S. pyogenes C203): 0.03 µg/mL | Minimum Inhibitory Concentrations E. coli MC 4100 (E. coli MC 4100): 2.0 µg/mL | Minimum Inhibitory Concentrations S. aureus 29213 (S. aureus 29213): 0.25 µg/mL | Minimum Inhibitory Concentrations E. coli B90 (E. coli B90): 0.25 µg/mL | IC50 (E. coli gyrase): 1.6 µM

1-Cyclopropyl-7-(5,5-difluoro-4-hydroxy-4,5,6,7-tetrahydrobenzo[b]thiophen-2-yl)-6-fluoro-8-methyl-1H-quinazolinedione [Example 23b]
Minimum Inhibitory Concentrations E. coli Tol C (E. coli Tol C): <0.06 µg/mL | Minimum Inhibitory Concentrations E. faecalis RB1 (E. faecalis RB1): 1.0 µg/mL | Minimum Inhibitory Concentrations S. pyogenes C203 (S. pyogenes C203): 2.0 µg/mL | Minimum Inhibitory Concentrations E. coli MC 4100 (E. coli MC 4100): 16.0 µg/mL | Minimum Inhibitory Concentrations S. aureus 29213 (S. aureus 29213): 0.5 µg/mL | Minimum Inhibitory Concentrations E. coli B90 (E. coli B90): 0.13 µg/mL | IC50 (E. coli gyrase; [4]): 1 µM

Cc1c(N2CC[C@@H]([C@H](C)N)C2)c(F)cc2c(=O)n(N)c(=O)n(C3CC3)c12 [reference compound]
clearance [1]: 21 mL/min/kg | half-life [1]: 2.4 h | clearance [2]: 24 mL/min/kg | half-life [2]: 2.2 h | clearance [3]: 62 mL/min/kg | half-life [3]: 2 h

Source: patent US20030114666A1, “Antibacterial agents” (priority 2001, published 2003)
